Legend:
Type in all cases: cell-based
human β1-adrenoceptor = molecular target: T1, human β1-adrenoceptor (Homo sapiens, UniProt P08588); assay: Measurement of agonistic activities on human β1-adrenoceptor (cAMP accumulation in transfected CHO cells); conditions: CHO cells expressing human β1-adrenoceptor; for Emax: maximum reaction relative to isoproterenol (100%), read-out: β1 receptor I.A. (intrinsic activity); for EC50: cAMP, concentration giving 50% of the maximum reaction of isoproterenol, read-out: β1 receptor EC50
T1 construct: Both ends of a domain including full length of human β1-adrenoceptor were amplified; expressed in transfected cells; host or cells: CHO cells (transient transfection of pCI-neo plasmid, Lipofectamine 2000)
Text: (§1) Measurement of Agonistic Activities on Human β1- and β2-Adrenoceptors
Both ends of a domain including full length of human β1-adrenoceptor were amplified on the basis of DNA base information that is registered with GenBank/EMBL data base as Accession No. J03019. DNA fragment which was amplified was inserted into a vector for cloning and amplified in Escherichia coli bacteria. The plasmid which was cloned was inserted into a vector pCI-neo (Promega) for protein expression and plasmid DNA was extracted and purified, then it was used for a preparation of the following expression cells.
1) Preparation of Human β1-Adrenoceptor Expressed Cells
(§2) The plasmid (320 ng) for expression which was obtained in the previous section was transfected into 5×10^4 CHO cells suspended in DMEM (Gibco-BRL: LIFE TECHNOLOGIES) containing 10% fetal bovine serum (Sanko Junyaku) by means of Lipofectoamine2000 (Invitrogen). These cells were dispensed in 96 well plate by 5×10^4 cells/100 μL per well and were cultured under an atmosphere of 5% CO2 at 37° C. for 24 hours, and were used for the assay.
(§3) 3. Measurement of Agonistic Activities on Human β1- and β2-Adrenoceptors
(§4) Test compounds were dissolved in 50% dimethyl sulfoxide to make a 10^−2 M solution. Then, a series of 1:10 dilutions containing a maximal dose of 2×10^−4 M were prepared using D-PBS (−) (Gibco-BRL: LIFE TECHNOLOGIES). The series were used for a testing sample to measure activity. The culture medium of CHO cells of previous section was removed and washed twice with 200 μL D-PBS (−) per well. After that, 50 μL of 3-isobutyl-1-methylxanthine (SIGMA, 1 mM) was added and leaved at rest for 5 minutes, and 50 μL of testing sample were added in them and they were incubated under an atomosphere of 5% CO2 at 37° C. for 30 minutes. cAMP concentrations accumulated in cells were reacted in cAMP-Screen (Applied Biosystems) and were detected by Microplate Luminometer TR717 (Applied Biosystems). The maximum reaction of isoproterenol, a positive contrast, was taken as a 100%, and the concentration of a test compound which gave reaction of the 50% was calculated as an EC50 value. In addition, the ratio of the maximum reaction of the test compound against the maximum reaction of isoproterenol was calculated as an intrinsic activity (I.A.).
(§5) (R)-3′-[[2-[[2-(3-chlorophenyl)-2-hydroxyethyl]aminoethoxy]-[1,1′-biphenyl]-3-carboxylic acid which was described in WO99/65877 was also examined as a comparison example.

human β2-adrenoceptor = molecular target: T2, human β2-adrenoceptor (Homo sapiens, UniProt P07550, E27Q/G16R); assay: Measurement of agonistic activities on human β2-adrenoceptor (cAMP accumulation in transfected CHO cells); conditions: CHO cells expressing human β2-adrenoceptor; for EC50: cAMP, concentration giving 50% of the maximum reaction of isoproterenol, read-out: β2 receptor EC50; for Emax: maximum reaction relative to isoproterenol (100%), read-out: β2 receptor I.A. (intrinsic activity)
T2 construct: expressed in transfected cells; host or cells: CHO cells (transient transfection, Lipofectamine 2000)
Text: as §1
The primer which added a restriction enzyme recognition region to 5′ end was designed on the basis of the base information that is registered with GenBank/EMBL data base as Accession No. M15169, and the clone was obtained by performance of PCR using human bladder origin cDNA as a template. The clone was inserted into pGEM-T vector and was amplified in Escherichia coli bacteria as a plasmid, and it was purified and the sequence of full length and around of insertion sequence determined by means of 310 Genetic Analyzer (ABI).
2) Preparation of Human β2-Adreoceptor Expressed Cells
as §2, with “(80” for “(320”, “expression” for “expression which was”
as §3, §4, §5

human β3-adrenoceptor = molecular target: T3, human β3-adrenoceptor (Homo sapiens, UniProt P13945); assay: Measurement of agonistic activities on human β3-adrenoceptor (cAMP accumulation in SK-N-MC cells); conditions: for EC50: SK-N-MC cells with CGP-20712A, cAMP, concentration giving 50% of the maximum reaction of isoproterenol, read-out: β3 receptor EC50; for Emax: SK-N-MC cells, maximum reaction relative to maximum reaction of isoproterenol (100%), read-out: β3 receptor I.A. (intrinsic activity)
T3 construct: SK—N-MC cells (American Type Culture Collection, 1×10^5cell/mL) were put in 96 well plates; host or cells: SK-N-MC cells
Experimental: Measurement of Agonistic Activities on Human β3-Adrenoceptor
Test compounds were dissolved in 50% dimethyl sulfoxide to make a 10^−2 M solution. Then, a series of 1:10 dilutions containing a maximal dose of 1×10^−4 M were prepared using D-PBS (−) (Gibco-BRL: LIFE TECHNOLOGIES). The series were used for a testing sample to measure activity. SK—N-MC cells (American Type Culture Collection, 1×10^5cell/mL) were put in 96 well plates by 100 μL and were cultured for about 24 hours. Forty μL of D-PBS and 20 μL of CGP-20712A (FUNAKOSHI, 3×10^−6 mol/L D-PBS solution) were added in them and incubated for 20 minutes. After that, 20 μL of 3-isobutyl-1-methylxanthine (SIGMA, 1×10^−2 mol/L D-PBS solution) and 20 μL of testing sample were added in them and they were incubated under an atmosphere of 5% CO2 at 37° C. for 30 minutes. cAMP concentrations accumulated in cells were reacted in cAMP-Screen (Applied Biosystems) and were detected by Microplate Luminometer TR717 (Applied Biosystems). The maximum reaction of isoproterenol, a positive contrast, was taken as a 100%, and the concentration of a test compound which gave reaction of the 50% was calculated as an EC50 value. In addition, the ratio of the maximum reaction of the test compound against the maximum reaction of isoproterenol was calculated as an intrinsic activity (I.A.). (R)-3′-[[2-[[2-(3-chlorophenyl)-2-hydroxyethyl]aminoethoxy]-[1,1′-biphenyl]-3-carboxylic acid which was described in WO99/65877 was also examined as a comparison example.

T1 sequence (P08588 whole entry): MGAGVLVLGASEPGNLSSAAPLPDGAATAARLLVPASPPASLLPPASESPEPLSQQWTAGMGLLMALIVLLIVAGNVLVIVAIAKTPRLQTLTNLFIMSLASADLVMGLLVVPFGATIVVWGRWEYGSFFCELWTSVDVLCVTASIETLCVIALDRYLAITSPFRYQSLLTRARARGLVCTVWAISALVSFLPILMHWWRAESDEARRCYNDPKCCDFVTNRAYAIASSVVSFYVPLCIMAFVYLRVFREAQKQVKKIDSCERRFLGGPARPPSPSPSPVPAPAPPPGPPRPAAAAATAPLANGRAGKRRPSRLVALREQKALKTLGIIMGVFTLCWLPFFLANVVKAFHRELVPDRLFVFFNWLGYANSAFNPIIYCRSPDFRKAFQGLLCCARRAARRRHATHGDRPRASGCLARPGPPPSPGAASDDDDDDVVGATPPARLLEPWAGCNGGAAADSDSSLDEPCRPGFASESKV
T2 sequence (P07550 whole entry G16R/E27Q): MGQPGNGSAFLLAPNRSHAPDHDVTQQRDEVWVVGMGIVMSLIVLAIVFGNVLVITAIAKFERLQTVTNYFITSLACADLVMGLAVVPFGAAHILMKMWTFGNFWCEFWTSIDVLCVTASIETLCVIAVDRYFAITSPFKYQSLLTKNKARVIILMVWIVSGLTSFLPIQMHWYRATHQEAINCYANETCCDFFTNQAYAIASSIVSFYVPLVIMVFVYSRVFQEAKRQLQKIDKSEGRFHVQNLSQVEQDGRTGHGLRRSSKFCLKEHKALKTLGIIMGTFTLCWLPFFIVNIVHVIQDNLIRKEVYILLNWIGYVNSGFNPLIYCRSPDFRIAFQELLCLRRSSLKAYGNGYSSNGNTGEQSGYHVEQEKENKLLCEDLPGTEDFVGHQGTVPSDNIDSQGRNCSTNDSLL
T3 sequence (P13945 whole entry): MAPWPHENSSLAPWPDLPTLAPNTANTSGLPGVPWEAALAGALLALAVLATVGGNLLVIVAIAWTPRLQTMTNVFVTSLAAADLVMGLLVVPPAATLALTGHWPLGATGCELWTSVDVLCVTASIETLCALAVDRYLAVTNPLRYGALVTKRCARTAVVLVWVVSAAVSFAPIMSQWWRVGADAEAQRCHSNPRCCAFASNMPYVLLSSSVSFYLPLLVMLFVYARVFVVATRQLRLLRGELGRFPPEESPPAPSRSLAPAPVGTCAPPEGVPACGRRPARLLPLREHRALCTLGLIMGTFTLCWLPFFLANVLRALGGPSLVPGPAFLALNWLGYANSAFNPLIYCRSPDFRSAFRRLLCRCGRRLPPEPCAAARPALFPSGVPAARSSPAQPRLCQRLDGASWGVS

Cc1cc(-c2ccc(OCC(=O)O)cc2)cc(C)c1OCCN[C@@H](C)[C@H](O)c1ccc(O)c(NS(C)(=O)=O)c1 [Compound 9, (4′-{2-[(1S,2R)-2-Hydroxy-2-(4-hydroxy-3-methanesulfonylaminophenyl)-1-methylethylamino]ethoxy}-3′,5′-dimethylbiphenyl-4-yloxy)acetic acid]
Emax (human β1-adrenoceptor): 49%
EC50 (human β2-adrenoceptor): 0.2 µM
Emax (human β2-adrenoceptor): 60%
EC50 (human β3-adrenoceptor): 0.0142 µM
Emax (human β3-adrenoceptor): 222%

CS(=O)(=O)Nc1cc([C@@H](O)CNCCOc2ccc(-c3ccc(C(=O)O)c(C(=O)O)c3)cc2)ccc1O [Compound 21, 4′-{2-[(R)-2-Hydroxy-2-(4-hydroxy-3-methanesulfonylaminophenyl)ethylamino]ethoxy}biphenyl-3,4-dicarboxylic acid]
EC50 (human β1-adrenoceptor): 9.33 µM
Emax (human β1-adrenoceptor): 86%
EC50 (human β2-adrenoceptor): 4.49 µM
Emax (human β2-adrenoceptor): 61%
EC50 (human β3-adrenoceptor): 0.0571 µM
Emax (human β3-adrenoceptor): 154%

CCOc1cc(-c2ccc(OCCNC[C@H](O)c3ccc(O)c(NS(C)(=O)=O)c3)cc2)ccc1C(=O)O [Compound 28, 3-Ethoxy-4′-{2-[(R)-2-hydroxy-2-(4-hydroxy-3-methanesulfonylaminophenyl)ethylamino]ethoxy}biphenyl-4-carboxylic acid]
EC50 (human β1-adrenoceptor): 1.67 µM
Emax (human β1-adrenoceptor): 85%
Emax (human β2-adrenoceptor): 27%
EC50 (human β3-adrenoceptor): 0.0193 µM
Emax (human β3-adrenoceptor): 112%

O=C(O)c1cccc(-c2cccc(OCCNC[C@H](O)c3cccc(Cl)c3)c2)c1 [comparison, reference compound]
EC50 (human β1-adrenoceptor): 0.742 µM
Emax (human β1-adrenoceptor): 60%
Emax (human β2-adrenoceptor): 15%
Emax (human β3-adrenoceptor): 27%

— US7417169B2, “Amino alcohol derivatives, medicinal composition containing the same, and use of these” (Kissei Pharmaceutical Co., Ltd., priority 2003, dated 2008)
